In PMC10055046 (bioRxiv, 2023):

How the values were obtained:
[1] = biological target: T1, OCT2CS (Homo sapiens, UniProt O15244); test: [3H]-verapamil accumulation in OCT2CS-injected oocytes; format: cell-based; conditions: 100 nM [3H]-verapamil, 30 min
T1 sequence (O15244 1-555): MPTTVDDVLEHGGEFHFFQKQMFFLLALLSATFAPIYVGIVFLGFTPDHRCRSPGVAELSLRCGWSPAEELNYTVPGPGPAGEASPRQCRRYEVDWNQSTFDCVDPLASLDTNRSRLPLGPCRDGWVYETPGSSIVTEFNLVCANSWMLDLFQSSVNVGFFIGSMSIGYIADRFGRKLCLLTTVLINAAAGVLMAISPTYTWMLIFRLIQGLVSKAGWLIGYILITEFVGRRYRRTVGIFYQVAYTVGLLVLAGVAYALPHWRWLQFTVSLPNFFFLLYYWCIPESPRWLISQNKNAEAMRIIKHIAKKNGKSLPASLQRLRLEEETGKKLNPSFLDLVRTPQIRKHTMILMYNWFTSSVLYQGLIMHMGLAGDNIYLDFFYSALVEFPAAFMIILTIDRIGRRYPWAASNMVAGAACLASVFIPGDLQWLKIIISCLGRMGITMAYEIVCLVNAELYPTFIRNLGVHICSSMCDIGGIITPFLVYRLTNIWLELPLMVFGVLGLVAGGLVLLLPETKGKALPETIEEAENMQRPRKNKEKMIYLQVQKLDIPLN

[2] = biological target: T2, WT hOCT1 (Homo sapiens, UniProt O15245); conditions: cited from earlier work
T2 sequence (O15245 1-554): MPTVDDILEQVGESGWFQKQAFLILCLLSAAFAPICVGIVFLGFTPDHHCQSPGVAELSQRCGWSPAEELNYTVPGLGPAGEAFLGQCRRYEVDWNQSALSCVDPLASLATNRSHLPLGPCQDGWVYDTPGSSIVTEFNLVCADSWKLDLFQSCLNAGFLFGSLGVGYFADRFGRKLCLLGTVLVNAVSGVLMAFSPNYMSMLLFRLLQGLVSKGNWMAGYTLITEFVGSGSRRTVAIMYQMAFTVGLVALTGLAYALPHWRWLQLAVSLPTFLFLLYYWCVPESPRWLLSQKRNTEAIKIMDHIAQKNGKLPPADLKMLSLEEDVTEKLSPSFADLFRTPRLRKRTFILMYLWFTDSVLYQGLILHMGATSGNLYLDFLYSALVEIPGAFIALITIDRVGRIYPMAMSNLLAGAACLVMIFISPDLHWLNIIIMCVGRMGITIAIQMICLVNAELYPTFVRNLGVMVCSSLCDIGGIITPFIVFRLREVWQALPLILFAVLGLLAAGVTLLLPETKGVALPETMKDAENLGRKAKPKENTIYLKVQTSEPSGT

COc1ccc(CCN(C)CCCC(C#N)(c2ccc(OC)c(OC)c2)C(C)C)cc1OC (racemic) [(±)-VPM, verapamil]
Uptake of [3H]-verapamil by OCT2CS ([1]; n=3, listed as VPM): does not mediate uptake
Uptake of [3H]-verapamil by OCT2CS ([1]; n=3, listed as verapamil): does not accumulate

CN(C)C(=N)N=C(N)N [metformin]
Kt for metformin, WT hOCT1, previous reports [2]: 1 to 5 mM
